Results from ChEMBL document CHEMBL1144007, “Activity of Mannich bases of 7-hydroxycoumarin against Flaviviridae” (Bioorg Med Chem, 2008).
Calls of active or inactive are those of the source. How the calls were made is not given here.

Tests used:
[1] = system: Vesicular stomatitis virus; assay: Antiviral activity against vesicular stomatitis virus; format: functional, organism-based
[2] = system: Vaccinia virus; assay: Antiviral activity against vaccinia virus; format: functional, organism-based; settings: Orthopoxvirus vaccinia
[3] = system: Reovirus sp.; assay: Antiviral activity against Reovirus; format: functional, organism-based
[4] = system: Human immunodeficiency virus 1; assay: Antiviral activity against HIV1; format: functional, organism-based
[5] = Cytotoxicity against human MT4 cells after 96 hrs by MTT method; format: cell-based
[6] = system: Bovine viral diarrhea virus 1; assay: Antiviral activity against BVDV NADL in MDBK cells assessed as protection from virus-induced cytopathogenicity by MTT method; format: functional, organism-based; settings: Bovine viral diarrhea virus isolates and strains
[7] = system: Yellow fever virus; assay: Antiviral activity against YFV in BHK cells assessed as protection from virus-induced cytopathogenicity by MTT method; format: functional, organism-based
[8] = system: Respiratory syncytial virus; assay: Antiviral activity against RSV A2 in VERO76 cells assessed as reduction of plaque number by MTT method; format: functional, organism-based; settings: human respiratory syncytial virus, A2, Vero 76
[9] = system: Poliovirus 1; assay: Antiviral activity against Human poliovirus 1 Sabin; format: functional

Question: What does the source list for `CC(=O)Oc1ccc2c(C)cc(=O)oc2c1Cc1c(C)[nH]c2ccccc12`?
Answer: Activity [1]: inactive; Activity [2]: inactive; Activity [3]: inactive; Activity [4]: inactive; CC50 at 96 h [5]: 41 µM; EC50 [6]: > 100 µM; EC50 [7]: > 100 µM; EC50 [8]: 25 µM; Activity [9]: inactive

Question: What does the source list for `CCCOc1ccc2c(C)cc(=O)oc2c1CN1CCN(C/C=C/c2ccccc2)CC1`?
Answer: Activity [1]: inactive; Activity [2]: inactive; Activity [3]: inactive; Activity [4]: inactive; CC50 at 96 h [5]: > 100 µM; EC50 [6]: 27 µM; EC50 [7]: > 53 µM; EC50 [8]: > 100 µM; Activity [9]: inactive

Question: For `COc1ccc2c(=O)c(Cc3c(OC(C)=O)ccc4ccc(=O)oc34)c(N3CCCC3)oc2c1`, which Activity [1] is on record?
Answer: inactive

Question: And the Activity [2]?
Answer: inactive

Question: What about the Activity [3] of the same molecule?
Answer: inactive

Question: And the Activity [4]?
Answer: inactive

Question: And the CC50 at 96 h [5]?
Answer: > 100 µM

Question: And the EC50 [6]?
Answer: > 100 µM

Question: And the EC50 [7]?
Answer: > 100 µM

Question: And the EC50 [8]?
Answer: > 100 µM

Question: And the Activity [9]?
Answer: inactive

Question: Which results are given for `Cc1cc(=O)oc2c(CN3CCN(C)CC3)c(O)ccc12`?
Answer: Activity [1]: inactive; Activity [2]: inactive; Activity [3]: inactive; Activity [4]: inactive; CC50 at 96 h [5]: > 100 µM; EC50 [6]: > 100 µM; EC50 [7]: > 100 µM; EC50 [8]: > 100 µM; Activity [9]: inactive

Question: Which Activity [1] does the source give for `C[C@@]1(O)[C@H](O)[C@@H](CO)O[C@H]1n1cnc2c(=O)[nH]c(N)nc21` [2'-B-METHYL-GUANOSINE] here?
Answer: inactive

Question: And the Activity [2]?
Answer: inactive

Question: What about the Activity [3] of the same molecule?
Answer: inactive

Question: And the Activity [4]?
Answer: inactive

Question: And the CC50 at 96 h [5]?
Answer: > 100 µM

Question: And the EC50 [6]?
Answer: 4 µM

Question: And the EC50 [7]?
Answer: 1 µM

Question: What about the EC50 [8] of the same molecule?
Answer: > 100 µM

Question: And the Activity [9]?
Answer: inactive

Question: Which Activity [1] does the source give for `CCC(=O)Oc1ccc2c(C)cc(=O)oc2c1Cc1c(-c2ccccc2)[nH]c2ccccc12` here?
Answer: inactive

Question: And the Activity [2]?
Answer: inactive

Question: And the Activity [3]?
Answer: inactive

Question: And the Activity [4]?
Answer: inactive

Question: And the CC50 at 96 h [5]?
Answer: 38 µM

Question: And the EC50 [6]?
Answer: 7 µM

Question: What about the EC50 [7] of the same molecule?
Answer: > 27 µM

Question: What about the EC50 [8] of the same molecule?
Answer: > 100 µM

Question: What about the Activity [9] of the same molecule?
Answer: inactive

Question: For `CC(=O)Oc1ccc2c(C)cc(=O)oc2c1Cc1c[nH]c2ccccc12`, which Activity [1] is on record?
Answer: inactive

Question: What about the Activity [2] of the same molecule?
Answer: inactive

Question: What about the Activity [3] of the same molecule?
Answer: inactive

Question: What about the Activity [4] of the same molecule?
Answer: inactive

Question: What about the CC50 at 96 h [5] of the same molecule?
Answer: 100 µM

Question: And the EC50 [6]?
Answer: ≥ 100 µM

Question: What about the EC50 [7] of the same molecule?
Answer: > 81 µM

Question: And the EC50 [8]?
Answer: > 100 µM

Question: What about the Activity [9] of the same molecule?
Answer: inactive

Question: Which Activity [1] does the source give for `Cc1cc(=O)oc2c(CN3CCc4ccccc4C3)c(OC(=O)c3ccccc3)ccc12` here?
Answer: inactive

Question: What about the Activity [2] of the same molecule?
Answer: inactive

Question: What about the Activity [3] of the same molecule?
Answer: inactive

Question: What about the Activity [4] of the same molecule?
Answer: inactive

Question: What about the CC50 at 96 h [5] of the same molecule?
Answer: > 100 µM

Question: And the EC50 [6]?
Answer: > 100 µM

Question: And the EC50 [7]?
Answer: > 100 µM

Question: And the EC50 [8]?
Answer: 18 µM

Question: And the Activity [9]?
Answer: inactive

Question: Which results are given for `CCC(=O)Oc1[nH]c2ccccc2c1Cc1c(OC(C)=O)ccc2ccc(=O)oc12`?
Answer: Activity [1]: inactive; Activity [2]: inactive; Activity [3]: inactive; Activity [4]: inactive; CC50 at 96 h [5]: 67 µM; EC50 [6]: > 64 µM; EC50 [7]: > 72 µM; EC50 [8]: 60 µM; Activity [9]: inactive

Question: For `O=c1ccc2ccc(O)c(CN3CCc4ccccc4C3)c2o1`, which Activity [1] is on record?
Answer: inactive

Question: What about the Activity [2] of the same molecule?
Answer: inactive

Question: What about the Activity [3] of the same molecule?
Answer: inactive

Question: And the Activity [4]?
Answer: inactive

Question: And the CC50 at 96 h [5]?
Answer: > 100 µM

Question: And the EC50 [6]?
Answer: > 100 µM

Question: And the EC50 [7]?
Answer: > 100 µM

Question: And the EC50 [8]?
Answer: > 100 µM

Question: And the Activity [9]?
Answer: inactive

Question: For `CCN(CC)c1oc2cc(OC(C)=O)ccc2c(=O)c1Cc1c(OC(C)=O)ccc2c(C)cc(=O)oc12`, which Activity [1] is on record?
Answer: inactive

Question: What about the Activity [2] of the same molecule?
Answer: inactive

Question: What about the Activity [3] of the same molecule?
Answer: inactive

Question: And the Activity [4]?
Answer: inactive

Question: What about the CC50 at 96 h [5] of the same molecule?
Answer: 44 µM

Question: And the EC50 [6]?
Answer: > 100 µM

Question: What about the EC50 [7] of the same molecule?
Answer: > 100 µM

Question: And the EC50 [8]?
Answer: 11 µM

Question: And the Activity [9]?
Answer: inactive
